Data reported in patent publication US4399125A, “Novel antagonists of the antidiuretic action of arginine vasopressin” (priority 1981, dated 1983).
*1 amine or outer side, *2 acyl side, *3 side chain or, on linkers, in order; H or OH if unused. Where a SMILES comes first, the peptide text is derived from it. Bridges are numbered along the chain shown (N, C = ends). [ ]: non-standard residue; d: D form. The star is where a group is joined. X1 = O=C(CC1(S[*:2])CCCCC1)[*:1]; Propyl = CCC*; iPr = CC(C)*

How the values were obtained:
[1] = test system: antidiuretic activity (urine flow); details: prior art statement; cited from earlier work
[2] = test system: vasopressor response to AVP; assay: Antagonism to the vasopressor response (Dyckes et al.); details: estimated in vivo pA2 (Schild); effective dose / 67 mL/kg; (n) in parentheses
Protocol: Antagonism to the vasopressor response was estimated in accordance with Dyckes et al., J. Med. Chem., vol. 17 (1974) at 969. The values are expressed as pA2 values, defined by Schild et al., Br. J. Pharmacol., vol. 2 (1947) at 189.
(§1) Antagonistic potencies were determined and expressed as "effective doses" and as pA2 values. The "effective dose" is defined as the dose (in nanomoles per kilogram) that reduces the response seen from 2x units of agonist injected 20 min after the dose of antagonist to the response with 1x units of agonist.

[3] = test system: antidiuretic response to ADH (arginine vasopressin); assay: Antagonism of the antidiuretic response to ADH (anti-antidiuretic potency) in ethanol-anesthetized water-loaded rats; details: estimated in vivo pA2 = negative logarithm of effective dose divided by estimated volume of distribution (67 mL/kg); (n) in parentheses
Protocol: Activity as antidiuretic agonists was determined by intravenous injection of compounds being evaluated into ethanol-anesthesized water-loaded rats in accordance with Sawyer et al., Endocrinology, vol. 63 (1958) at 694.
as §1

[4] = test system: vasopressor response to AVP; details: prior art statement; cited from earlier work

Compound | antidiuretic potency / activity (in words) [1] | Antivasopressor pA2 [2] | Anti-Antidiuretic pA2 [3] | vasopressor antagonism (in words) [4]
1-deamino[4-valine, 8-D-arginine] vasopressin [dVDAVP] | highly active and selective antidiuretic peptide |  |  | 
CCOc1ccc(C[C@H]2NC(=O)CC3(CCCCC3)SSC[C@@H](C(=O)N3CCC[C@H]3C(=O)N[C@@H](CCCNC(=N)N)C(=O)NCC(N)=O)NC(=O)[C@H](CC(N)=O)NC(=O)[C@H](C(C)C)NC(=O)[C@H](Cc3ccccc3)NC2=O)cc1 [d(CH2)5 --D-Tyr(Et) VAVP] ([dY](Et)FVNCPRG-NH2; linker N-5 via X1) |  | 8.22 ± 0.12 | 7.81 ± 0.07 | 
COc1ccc(C[C@H]2NC(=O)CC3(CCCCC3)SSC[C@@H](C(=O)N3CCC[C@H]3C(=O)N[C@@H](CCCNC(=N)N)C(=O)NCC(N)=O)NC(=O)[C@H](CC(N)=O)NC(=O)[C@H](C(C)C)NC(=O)[C@H](Cc3ccccc3)NC2=O)cc1 [d(CH2)5 --D-Tyr(Me) VAVP] ([dY](Me)FVNCPRG-NH2; linker N-5 via X1) |  | 8.48 ± 0.08 | 7.77 ± 0.07 | 
CC(C)[C@@H]1NC(=O)[C@H](Cc2ccccc2)NC(=O)[C@@H](Cc2ccccc2)NC(=O)CC2(CCCCC2)SSC[C@@H](C(=O)N2CCC[C@H]2C(=O)N[C@@H](CCCNC(=N)N)C(=O)NCC(N)=O)NC(=O)[C@H](CC(N)=O)NC1=O [d(CH2)5 D-Phe VAVP, [1-(β-mercapto-β,β-cyclopentamethylenepropionicacid), 2-D-phenylalanine, 4-valine]-arginine vasopressin] ([dF]FVNCPRG-NH2; linker N-5 via X1) |  | 8.06 ± 0.03 | 8.07 ± 0.09 | 
CC(C)[C@@H]1NC(=O)[C@H](Cc2ccccc2)NC(=O)[C@@H](Cc2ccccc2)NC(=O)CC2(CCCCC2)SSC[C@@H](C(=O)N2CCC[C@H]2C(=O)N[C@H](CCCNC(=N)N)C(=O)NCC(N)=O)NC(=O)[C@H](CC(N)=O)NC1=O [d(CH2)5 D-Phe VDAVP, [1-(β-mercapto-β,β-cyclopentamethylenepropionic acid), 2-D-phenylalanine, 4-valine, 8-D-arginine] vasopressin] ([dF]FVNCP[dR]G-NH2; linker N-5 via X1) |  | 7.98 ± 0.07 | 7.07 ± 0.10 | 
CC(C)[C@@H]1NC(=O)[C@H](Cc2ccccc2)NC(=O)[C@@H](Cc2ccc(O)cc2)NC(=O)CC2(CCCCC2)SSC[C@@H](C(=O)N2CCC[C@H]2C(=O)N[C@@H](CCCNC(=N)N)C(=O)NCC(N)=O)NC(=O)[C@H](CC(N)=O)NC1=O [d(CH2)5 D-Tyr VAVP, [1-(β-mercapto-β,β-cyclopentamethylenepropionic acid), 2-D-tyrosine, 4-valine]-arginine vasopressin] ([dY]FVNCPRG-NH2; linker N-5 via X1) |  | 8.41 ± 0.11 | 7.51 ± 0.08 | 
CCOc1ccc(C[C@@H]2NC(=O)CC3(CCCCC3)SSC[C@@H](C(=O)N3CCC[C@H]3C(=O)N[C@@H](CCCNC(=N)N)C(=O)NCC(N)=O)NC(=O)[C@H](CC(N)=O)NC(=O)[C@H](C(C)C)NC(=O)[C@H](Cc3ccccc3)NC2=O)cc1 [d(CH2)5 Tyr(Et) VAVP] (Y(Et)FVNCPRG-NH2; linker N-5 via X1) |  | 8.16 ± 0.09 | 7.57 ± 0.06 | 
CCOc1ccc(C[C@@H]2NC(=O)CC3(CCCCC3)SSC[C@@H](C(=O)N3CCC[C@H]3C(=O)N[C@H](CCCNC(=N)N)C(=O)NCC(N)=O)NC(=O)[C@H](CC(N)=O)NC(=O)[C@H](C(C)C)NC(=O)[C@H](Cc3ccccc3)NC2=O)cc1 [d(CH2)5 Tyr(Et) VDAVP] (Y(Et)FVNCP[dR]G-NH2; linker N-5 via X1) |  | 8.31 ± 0.05 | 7.10 ± 0.08 | 
COc1ccc(C[C@@H]2NC(=O)CC3(CCCCC3)SSC[C@@H](C(=O)N3CCC[C@H]3C(=O)N[C@@H](CCCNC(=N)N)C(=O)NCC(N)=O)NC(=O)[C@H](CC(N)=O)NC(=O)[C@H](C(C)C)NC(=O)[C@H](Cc3ccccc3)NC2=O)cc1 [d(CH2)5 Tyr(Me) VAVP] (Y(Me)FVNCPRG-NH2; linker N-5 via X1) |  | 8.32 ± 0.08 | 7.35 ± 0.06 | 
COc1ccc(C[C@@H]2NC(=O)CC3(CCCCC3)SSC[C@@H](C(=O)N3CCC[C@H]3C(=O)N[C@H](CCCNC(=N)N)C(=O)NCC(N)=O)NC(=O)[C@H](CC(N)=O)NC(=O)[C@H](C(C)C)NC(=O)[C@H](Cc3ccccc3)NC2=O)cc1 [d(CH2)5 Tyr(Me) VDAVP, [1-(β-mercapto-β,β-cyclopentamethylenepropionic acid), 2-O-methyltyrosine, 4-valine, 8-D-arginine] vasopressin] (Y(Me)FVNCP[dR]G-NH2; linker N-5 via X1) |  | 8.44 ± 0.07 | 6.68 ± 0.11 | 
CC(C)Oc1ccc(C[C@@H]2NC(=O)CC3(CCCCC3)SSC[C@@H](C(=O)N3CCC[C@H]3C(=O)N[C@@H](CCCNC(=N)N)C(=O)NCC(N)=O)NC(=O)[C@H](CC(N)=O)NC(=O)[C@H](C(C)C)NC(=O)[C@H](Cc3ccccc3)NC2=O)cc1 [d(CH2)5 Tyr(i-Pr) VAVP] (Y(iPr)FVNCPRG-NH2; linker N-5 via X1) |  | 8.36 ± 0.09 | 7.32 ± 0.06 | 
CC(C)Oc1ccc(C[C@@H]2NC(=O)CC3(CCCCC3)SSC[C@@H](C(=O)N3CCC[C@H]3C(=O)N[C@H](CCCNC(=N)N)C(=O)NCC(N)=O)NC(=O)[C@H](CC(N)=O)NC(=O)[C@H](C(C)C)NC(=O)[C@H](Cc3ccccc3)NC2=O)cc1 [d(CH2)5 Tyr(i-Pr) VDAVP] (Y(iPr)FVNCP[dR]G-NH2; linker N-5 via X1) |  | 8.41 ± 0.08 | 6.88 ± 0.07 | 
CCCOc1ccc(C[C@@H]2NC(=O)CC3(CCCCC3)SSC[C@@H](C(=O)N3CCC[C@H]3C(=O)N[C@@H](CCCNC(=N)N)C(=O)NCC(N)=O)NC(=O)[C@H](CC(N)=O)NC(=O)[C@H](C(C)C)NC(=O)[C@H](Cc3ccccc3)NC2=O)cc1 [d(CH2)5 Tyr(n-Pr) VAVP] (Y(Propyl)FVNCPRG-NH2; linker N-5 via X1) |  | 8.22 ± 0.04 | 7.29 ± 0.07 | 
CCCOc1ccc(C[C@@H]2NC(=O)CC3(CCCCC3)SSC[C@@H](C(=O)N3CCC[C@H]3C(=O)N[C@H](CCCNC(=N)N)C(=O)NCC(N)=O)NC(=O)[C@H](CC(N)=O)NC(=O)[C@H](C(C)C)NC(=O)[C@H](Cc3ccccc3)NC2=O)cc1 [d(CH2)5 Tyr(n-Pr) VDAVP] (Y(Propyl)FVNCP[dR]G-NH2; linker N-5 via X1) |  | 7.86 ± 0.10 | 6.67 ± 0.05 | 
CC(C)[C@@H]1NC(=O)[C@H](Cc2ccccc2)NC(=O)[C@@H](C)NC(=O)CC2(CCCCC2)SSC[C@@H](C(=O)N2CCC[C@H]2C(=O)N[C@@H](CCCNC(=N)N)C(=O)NCC(N)=O)NC(=O)[C@H](CC(N)=O)NC1=O [d(CH2)5 [D-Ala^2] VAVP, [1-(β-mercapto-β,β-cyclopentamethylenepropionic acid), 2-D-alanine, 4-valine]-arginine vasopressin] ([dA]FVNCPRG-NH2; linker N-5 via X1) |  | 5.79 ± 0.08 |  | 
CC(C)[C@@H]1NC(=O)[C@H](Cc2ccccc2)NC(=O)[C@@H](CCCNC(=N)N)NC(=O)CC2(CCCCC2)SSC[C@@H](C(=O)N2CCC[C@H]2C(=O)N[C@@H](CCCNC(=N)N)C(=O)NCC(N)=O)NC(=O)[C@H](CC(N)=O)NC1=O [d(CH2)5 [D-Arg^2] VAVP, [1-(β-mercapto-β,β-cyclopentamethylenepropionic acid), 2-D-arginine, 4-valine]-arginine vasopressin] ([dR]FVNCPRG-NH2; linker N-5 via X1) |  | ~ 5.4 | < 5.9 | 
CC[C@@H](C)[C@H]1NC(=O)CC2(CCCCC2)SSC[C@@H](C(=O)N2CCC[C@H]2C(=O)N[C@@H](CCCNC(=N)N)C(=O)NCC(N)=O)NC(=O)[C@H](CC(N)=O)NC(=O)[C@H](C(C)C)NC(=O)[C@H](Cc2ccccc2)NC1=O [d(CH2)5 [D-Ile^2] VAVP, [1-(β-mercapto-β,β-cyclopentamethylenepropionic acid), 2-D-isoleucine, 4-valine]-arginine vasopressin] ([dI]FVNCPRG-NH2; linker N-5 via X1) |  | 6.94 ± 0.08 | 7.98 ± 0.05 | 
CC(C)C[C@H]1NC(=O)CC2(CCCCC2)SSC[C@@H](C(=O)N2CCC[C@H]2C(=O)N[C@@H](CCCNC(=N)N)C(=O)NCC(N)=O)NC(=O)[C@H](CC(N)=O)NC(=O)[C@H](C(C)C)NC(=O)[C@H](Cc2ccccc2)NC1=O [d(CH2)5 [D-Leu^2] VAVP, [1-(β-mercapto-β,β-cyclopentamethylenepropionic acid), 2-D-leucine, 4-valine]-arginine vasopressin] ([dL]FVNCPRG-NH2; linker N-5 via X1) |  | 6.45 ± 0.09 | 7.79 ± 0.12 | 
CC(C)[C@@H]1NC(=O)[C@H](Cc2ccccc2)NC(=O)[C@@H](C(C)C)NC(=O)CC2(CCCCC2)SSC[C@@H](C(=O)N2CCC[C@H]2C(=O)N[C@@H](CCCNC(=N)N)C(=O)NCC(N)=O)NC(=O)[C@H](CC(N)=O)NC1=O [d(CH2)5 [D-Val^2] VAVP, [1-(β-mercapto-β,β-cyclopentamethylenepropionic acid), 2-D-valine, 4-valine]-arginine vasopressin] ([dV]FVNCPRG-NH2; linker N-5 via X1) |  | 6.41 ± 0.05 | 7.48 ± 0.06 | 
[1-(β-Mercapto-β,β-cyclopentamethylenepropionic acid), 2-(O-methyl)tyrosine]-arginine vasopressin | very low antidiuretic potency |  |  | potent vasopressor antagonists
